Consider nine compounds from US4036962A, “6,7-Methylenedioxy-1-(2,2,2-trifluoroethyl)-4(1H)-quinolone-3-carboxylic acid and its salts and esters” (E. I. Du Pont de Nemours and Co., priority 1975, dated 1977).

Like-named read-outs stand apart in the source and are kept apart here. Bounds are passed on as bounds.

The test system of one experiment is Escherichia coli. As to the kind of experiment: In vivo antibacterial activity in mice infected with Escherichia coli (intraperitoneal), compound given orally at infection and 4 hours later; mortality through third day. To be noted: for ED50: Escherichia coli, po, 72 h. The method, then:
Use of the ester of this invention as antibacterial agents is exemplified by data for 6,7-methylene-1-(2,2,2-trifluoroethyl)-4(1H)-quinolone-3-carboxylic acid, trimethylacetoxymethyl ester. In vivo determinations of antibacterial activity are carried out in mice.
The test bacterium is grown into bacteriological medium from frozen stock cultures. The culture is centrifuged, resuspended, centrifuged again, resuspended in fresh bacteriological medium, and diluted to the proper infective concentration. Mice are infected by intraperitoneal or intravenous injection of 0.2 ml. of the diluted bacterial culture.
Test compounds are dissolved or suspended in water containing 0.01% Tween 80 by either sonication or bead-milling to break up the materials in order to dissolve them or provide a fine suspension for the insoluble compounds. Concentrations are prepared so that when 0.2 ml. of the solution or suspension is administered to mice orally by intubation, the correct amount of compound in mg/kg of mouse is provided.
The mice are dosed with test compound orally by intubation at appropriate intervals following infection and mortality is recorded through the third day. The effective dose 50 (ED50) and lethal dose for 50% kill (LD50) are calculated by the Reed-Muench method.
In Table I are the results of a test in mice infected with Escherichia coli by the intraperitoneal route. Compound was administered orally by intubation immediately following infection and again 4 hours after infection.
^1 Animals dosed orally at the time of infection and again four hours
^2 Determined by agar plate counts and stock culture titration, the
dose is the LD50 multiplied by the number preceding it.

A short description of experiment [1]: Biological activity of stable versus metastable crystalline form (test not specified). In kind it is in vivo. The settings on record: probably due to poor absorption.
The mark [2] stands for this setting: 18 LD50 E. coli infection, 10 mg/kg PO, at infection and again 4 hours later.
Where [3] appears, read: 18 LD50 E. coli infection, 30 mg/kg PO, at infection and again 4 hours later.
Setting [4] is: 18 LD50 E. coli infection, 100 mg/kg PO, at infection and again 4 hours later.
Where [5] appears, read: 135 LD50 E. coli infection, 10 mg/kg PO, at infection and again 4 hours later.
The mark [6] stands for this setting: 135 LD50 E. coli infection, 30 mg/kg PO, at infection and again 4 hours later.
Setting [7] is: 135 LD50 E. coli infection, 100 mg/kg PO, at infection and again 4 hours later.
Setting [8] is: 4 LD50 E. coli infected mice, oral, read-out: ED50.
[9] abbreviates: 2 LD50 E. coli infected mice, oral, read-out: ED50.

As a reminder, the ED50 is the midpoint of the dose-response relation. `CC(C)(C)C(=O)OCOC(=O)c1cn(CC(F)(F)F)c2cc3c(cc2c1=O)OCO3` [Example 6, 6,7-Methylenedioxy-1-(2,2,2-trifluoroethyl)-4(1H)-quinolone-3-carboxylic acid, trimethylacetoxymethyl ester]: the “% Survivors” value in the experiment with Escherichia coli (setting [2]) is reported as 33%; with Escherichia coli (setting [3]), 50%; with Escherichia coli (setting [4]), 75%; in the experiment with Escherichia coli (setting [5]), 17%; in the experiment with Escherichia coli (setting [6]), 8%; in the experiment with Escherichia coli (setting [7]), 50%. Moreover, the ED50 in the experiment on Escherichia coli (18 LD50 E. coli infection, PO, at infection and again 4 hours later, Reed-Muench, read-out: ED50) turned out to be 24 mg/kg; in the experiment on Escherichia coli (135 LD50 E. coli infection, PO, at infection and again 4 hours later, Reed-Muench, read-out: ED50) it was 77 mg/kg. Further, in the experiment with Escherichia coli (systemic Escherichia coli infection of mice, two infecting levels of bacteria), the “antibacterial activity compared with oxolinic acid” value is “significantly greater antibacterial activity than does oxolinic acid”.
With `CC(C)C(=O)OCOC(=O)c1cn(CC(F)(F)F)c2cc3c(cc2c1=O)OCO3` [Example 6A, 6,7-methylenedixoy-1-(2,2,2-trifluoroethyl)-4(1H)-quinolone-3-carboxylic acid, iso-butyryloxymethyl ester], in the experiment on Escherichia coli (setting [8]), the ED50 came out at 73 mg/kg.
As for `CCC(C)(C)C(=O)OCOC(=O)c1cn(CC(F)(F)F)c2cc3c(cc2c1=O)OCO3` [Example 6B, 6,7-methylenedioxy-1-(2,2,2-trifluoroethyl)-4(1H)-quinolone-3-carboxylic acid, 2,2-dimethyl-n-butyryloxymethyl ester], the ED50 with Escherichia coli (setting [8]) amounted to 40 mg/kg.
In the case of `CCCCCC(=O)OCOC(=O)c1cn(CC(F)(F)F)c2cc3c(cc2c1=O)OCO3` [Example 6C, 6,7-methylenedioxy-1-(2,2,2-trifluoroethyl)-4(1H)-quinolone-3-carboxylic acid, n-hexanoyloxymethyl ester], the ED50 in the experiment on Escherichia coli (setting [8]) came out at 25 mg/kg.
For `CCCCCCCCCC(=O)OCOC(=O)c1cn(CC(F)(F)F)c2cc3c(cc2c1=O)OCO3` [Example 6D, 6,7-methylenedioxy-1-(2,2,2-trifluoroethyl)-4(1H)-quinolone-3-carboxylic acid, n-decanoyloxymethyl ester], the ED50 in the experiment on Escherichia coli (setting [9]) was 19 mg/kg.
With `O=C(OCOC(=O)C1CCCCC1)c1cn(CC(F)(F)F)c2cc3c(cc2c1=O)OCO3` [Example 6E, 6,7-methylenedioxy-1-(2,2,2-trifluoroethyl)-4(1H)-quinolone-3-carboxylic acid, cyclohexanecarbonyloxymethyl ester], the ED50 in the experiment with Escherichia coli (setting [9]) worked out at 29 mg/kg.
Take `O=C(OCOC(=O)c1cn(CC(F)(F)F)c2cc3c(cc2c1=O)OCO3)c1ccccc1` [Example 6F, 6,7-methylenedioxy-1-(2,2,2-trifluoroethyl)-4(1H)-quinolone-3-carboxylic acid, benzoyloxymethyl ester]: in the experiment on Escherichia coli (setting [8]), the median effective dose (ED50) was determined as 34 mg/kg.
In the case of `CCn1cc(C(=O)O)c(=O)c2cc3c(cc21)OCO3` [Oxolinic Acid, reference compound], the “% Survivors” value in the experiment with Escherichia coli (setting [2]) turned out to be 8%; with Escherichia coli (setting [3]), 33%; in the experiment on Escherichia coli (setting [4]), 83%; in the experiment on Escherichia coli (setting [5]), 17%; in the experiment with Escherichia coli (setting [6]), 17%; with Escherichia coli (setting [7]), 25%. For the same compound, the median effective dose (ED50) with Escherichia coli (18 LD50 E. coli infection, at infection and again 4 hours later, Reed-Muench) is 45 mg/kg; in the experiment on Escherichia coli (135 LD50 E. coli infection, at infection and again 4 hours later, Reed-Muench), greater than 100 mg/kg.
Turning to `CC(C)(C)C(=O)OCOC(=O)c1cn(CC(F)(F)F)c2cc3c(cc2c1=O)OCO3` [stable form, 6,7-Methylenedioxy-1-(2,2,2-trifluoroethyl)-4(1H)-quinolone-3-carboxylic acid, trimethylacetoxymethyl ester], the “biological activity of stable form compared with meta-stable form” value in experiment [1] is reported as “less active than the meta-stable”.
